The target in assay [1] is T1, rat α4β2 nAChR subtype (Rattus norvegicus, UniProt P09483+P12390).
T1 construct: The cerebral cortex was removed and placed in 20 volumes (weight:volume) of ice-cold preparative buffer; from tissue; host or cells: rat cerebral cortex membranes (female Sprague-Dawley)
Description: Radioligand binding, [3H]nicotine, rat cortex membranes. The note with it: 5 μM compound, 5 nM 3H-nicotine; Ki not determined.

A further assay concerns the target T2, human α4β2 nAChR subtype (Homo sapiens, UniProt P17787+P43681).
T2 construct: expressed in transfected cells; host or cells: SH-EP1 clonal cells expressing human α4β2
Description: Radioligand binding, [3H]nicotine, membranes from SH-EP1/human α4β2 clonal cells. The following applies: [3H]nicotine 5 nM, SH-EP1/human α4β2 cell membranes.

The target of another assay is T3, α7 nAChR subtype (Rattus norvegicus, UniProt Q05941).
T3 construct: The hippocampus was removed and placed in 10 volumes (weight:volume) of ice-cold preparative buffer; from tissue; host or cells: rat hippocampus membranes (female Sprague-Dawley)
T3 sequence (Q05941 23-502): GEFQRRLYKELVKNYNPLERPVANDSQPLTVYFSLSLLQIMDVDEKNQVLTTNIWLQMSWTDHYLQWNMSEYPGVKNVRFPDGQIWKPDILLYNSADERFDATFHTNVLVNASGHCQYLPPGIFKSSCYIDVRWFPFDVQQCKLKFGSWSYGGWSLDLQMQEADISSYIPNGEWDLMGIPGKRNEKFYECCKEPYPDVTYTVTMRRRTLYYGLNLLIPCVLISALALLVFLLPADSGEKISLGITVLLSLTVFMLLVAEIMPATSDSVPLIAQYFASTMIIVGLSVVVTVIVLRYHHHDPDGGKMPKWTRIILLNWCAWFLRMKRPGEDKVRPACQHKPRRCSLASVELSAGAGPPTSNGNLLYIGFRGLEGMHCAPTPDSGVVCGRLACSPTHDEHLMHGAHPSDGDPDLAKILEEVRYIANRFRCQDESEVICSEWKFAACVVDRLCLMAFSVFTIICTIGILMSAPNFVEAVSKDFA
Description: Radioligand binding, [3H]MLA, rat hippocampus membranes. The note with it: for inhibition at 5 µM: read-out: α7 high through-put screening (HTS) result.

For a further assay, the system named is rats. The assay can be described thus: Novel object recognition (NOR) task. The assay is classed as in vivo, rat. The note with it: oral, 0.3 mg/kg. As for the experimental part:
FIG. 1 is a chart showing the results of a study on object recognition in rats treated orally with N-(propanoyl)-3,7-diazabicyclo[3.3.0]octane. The results are shown as a function of recognition index (%) versus dose (mg/kg). N-(Propanoyl)-3,7-diazabicyclo[3.3.0]octane is active orally in rats at 0.3 mg/kg in novel object recognition (NOR) task.
The novel object recognition (NOR) task was performed in accord with the description of Ennaceur and Delacour Behav. Brain Res. 100: 85-92 (1988).
Certain exemplified compounds were assessed in the NOR task. Thus, N-(propanoyl)-3,7-diazabicyclo[3.3.0]octane (Compound 10-16, Table 1) was active in NOR in rats, at […]. This provides evidence of the efficacy (and potency) of the compounds of the present invention in treating cognitive deficits, attentional disorders and dementias, and the potential of these compounds for human therapy.

Assay [2] concerns the target T1, rat α4β2 nAChR subtype. Description: Radioligand binding, [3H]nicotine, rat cortex membranes. The note with it: [3H]nicotine 5 nM.

Structures are written as SMILES. Like-named read-outs stand apart in the source and are kept apart here.

T1 sequence (P09483 31-630): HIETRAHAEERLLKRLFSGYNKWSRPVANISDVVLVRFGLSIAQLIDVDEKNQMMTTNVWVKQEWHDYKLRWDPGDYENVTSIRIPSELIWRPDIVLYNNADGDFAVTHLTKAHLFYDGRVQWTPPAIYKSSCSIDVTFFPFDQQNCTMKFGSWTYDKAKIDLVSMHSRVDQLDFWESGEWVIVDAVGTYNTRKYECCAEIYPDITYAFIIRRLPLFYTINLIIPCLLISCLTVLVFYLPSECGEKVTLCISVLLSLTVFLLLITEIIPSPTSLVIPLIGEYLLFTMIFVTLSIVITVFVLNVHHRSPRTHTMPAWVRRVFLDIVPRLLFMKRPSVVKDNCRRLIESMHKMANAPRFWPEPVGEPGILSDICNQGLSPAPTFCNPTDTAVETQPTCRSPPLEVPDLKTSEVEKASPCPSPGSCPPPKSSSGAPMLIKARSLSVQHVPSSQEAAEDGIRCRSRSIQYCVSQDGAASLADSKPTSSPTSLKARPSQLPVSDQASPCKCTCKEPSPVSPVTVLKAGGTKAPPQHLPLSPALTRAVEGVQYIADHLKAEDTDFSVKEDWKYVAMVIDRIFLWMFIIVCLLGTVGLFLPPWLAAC
T1 sequence (P12390 25-500): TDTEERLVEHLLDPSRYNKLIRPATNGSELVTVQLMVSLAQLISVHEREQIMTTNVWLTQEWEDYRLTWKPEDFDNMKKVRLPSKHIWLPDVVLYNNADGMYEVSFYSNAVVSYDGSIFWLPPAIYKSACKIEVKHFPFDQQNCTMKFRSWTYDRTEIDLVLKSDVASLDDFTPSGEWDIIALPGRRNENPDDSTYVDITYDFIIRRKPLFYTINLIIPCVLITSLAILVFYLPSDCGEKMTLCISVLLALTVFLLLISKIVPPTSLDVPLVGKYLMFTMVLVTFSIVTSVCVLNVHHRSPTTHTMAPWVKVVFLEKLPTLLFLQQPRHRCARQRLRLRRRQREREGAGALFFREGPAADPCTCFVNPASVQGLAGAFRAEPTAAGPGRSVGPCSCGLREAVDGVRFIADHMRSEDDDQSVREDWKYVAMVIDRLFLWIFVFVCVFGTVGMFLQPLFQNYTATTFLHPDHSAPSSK
T2 sequence (P43681 29-627 limits assumed): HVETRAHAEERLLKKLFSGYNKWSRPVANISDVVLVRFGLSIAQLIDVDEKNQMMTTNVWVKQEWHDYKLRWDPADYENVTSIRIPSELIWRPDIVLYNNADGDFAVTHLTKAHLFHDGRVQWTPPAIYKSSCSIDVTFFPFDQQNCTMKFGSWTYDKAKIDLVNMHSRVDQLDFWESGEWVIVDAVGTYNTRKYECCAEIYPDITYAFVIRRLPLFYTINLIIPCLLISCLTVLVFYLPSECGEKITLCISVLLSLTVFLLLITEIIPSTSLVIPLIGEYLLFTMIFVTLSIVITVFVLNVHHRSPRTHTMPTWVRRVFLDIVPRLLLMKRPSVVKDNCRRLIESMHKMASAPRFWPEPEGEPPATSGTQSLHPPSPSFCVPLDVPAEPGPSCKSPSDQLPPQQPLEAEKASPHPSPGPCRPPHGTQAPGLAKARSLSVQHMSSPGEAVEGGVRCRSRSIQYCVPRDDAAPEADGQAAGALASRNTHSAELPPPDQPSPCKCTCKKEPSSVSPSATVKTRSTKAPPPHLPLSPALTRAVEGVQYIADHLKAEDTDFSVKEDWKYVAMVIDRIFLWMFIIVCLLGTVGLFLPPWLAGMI
T2 sequence (P17787 26-502): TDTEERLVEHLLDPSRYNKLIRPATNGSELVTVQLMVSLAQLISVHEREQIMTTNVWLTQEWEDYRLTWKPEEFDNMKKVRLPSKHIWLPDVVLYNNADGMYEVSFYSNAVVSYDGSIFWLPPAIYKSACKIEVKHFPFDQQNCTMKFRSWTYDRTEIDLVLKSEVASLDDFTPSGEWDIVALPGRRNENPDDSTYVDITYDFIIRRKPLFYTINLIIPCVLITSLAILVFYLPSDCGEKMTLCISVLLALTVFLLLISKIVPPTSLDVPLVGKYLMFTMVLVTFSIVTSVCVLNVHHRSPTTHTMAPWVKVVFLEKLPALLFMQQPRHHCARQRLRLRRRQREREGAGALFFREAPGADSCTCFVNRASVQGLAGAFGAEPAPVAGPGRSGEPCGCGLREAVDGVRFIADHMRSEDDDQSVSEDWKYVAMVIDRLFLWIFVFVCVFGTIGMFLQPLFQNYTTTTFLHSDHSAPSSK

By Ki is commonly meant a measure of affinity in units of concentration, obtained from inhibition or displacement. `O=C(Cc1cccnc1)N1CC2CNCC2C1` (stereo not shown) [Example 10-6]: the “Rat α4β2 high through-put screening (HTS) result” value on rat α4β2 nAChR subtype [1] is on record as “ND; failed HTS (the compound failed to inhibit, at 5 μM concentration, the binding of 5 nM ^3H-nicotine by at least 50%)”. In addition, on human α4β2 nAChR subtype, the Ki was 489 nM. The inhibition at 5 µM at α7 nAChR subtype is < 50%.
With `CCC(=O)N1CC2CNCC2C1` (stereo not shown) [Example 10-16, N-(propanoyl)-3,7-diazabicyclo[3.3.0]octane], the “activity in novel object recognition (NOR) task (recognition index)” value in the assay on rats was “active”.
Consider `CC1(C)CC(C(=O)N2CC3CNCC3C2)C1` (stereo not shown) [Example 10-50], for which the “Rat α4β2 high through-put screening (HTS) result” value on rat α4β2 nAChR subtype [1] is recorded as “ND; failed HTS (the compound failed to inhibit, at 5 μM concentration, the binding of 5 nM ^3H-nicotine by at least 50%)”. Further, the Ki on human α4β2 nAChR subtype came out at 129 nM. Also, on α7 nAChR subtype, the inhibition at 5 µM was < 50%.
On to `O=C(C(O)c1ccccc1)N1CC2CNCC(C2)C1` (stereo not shown) [Example 10-64], for which, on rat α4β2 nAChR subtype [1], the “Rat α4β2 high through-put screening (HTS) result” value is “ND; failed HTS (the compound failed to inhibit, at 5 μM concentration, the binding of 5 nM ^3H-nicotine by at least 50%)”. For the same compound, affinity on human α4β2 nAChR subtype was put at a Ki of 1530 nM. In addition, the inhibition at 5 µM on α7 nAChR subtype was < 50%.
As to `COC(C(=O)N1CC2CNCC(C2)C1)c1ccccc1` (stereo not shown) [Example 10-65], the “Rat α4β2 high through-put screening (HTS) result” value on rat α4β2 nAChR subtype [1] is “ND; failed HTS (the compound failed to inhibit, at 5 μM concentration, the binding of 5 nM ^3H-nicotine by at least 50%)”. Further, the Ki on human α4β2 nAChR subtype is 386 nM. In addition, the inhibition at 5 µM on α7 nAChR subtype was < 50%.
As for `O=C([C@@H]1C[C@H]1F)N1CC2CNCC(C2)C1` [Example 10-88], the inhibition constant (Ki) on human α4β2 nAChR subtype turned out to be 1.4 nM; on rat α4β2 nAChR subtype [2] it was 1.8 nM; on α7 nAChR subtype (α7 Ki), 243 nM.
For the compound `O=C([C@@H]1C[C@@H]1F)N1CC2CNCC(C2)C1` [Example 10-89], the Ki at human α4β2 nAChR subtype amounted to 1 nM; at rat α4β2 nAChR subtype [2], 0.8 nM; on α7 nAChR subtype (α7 Ki), 73.4 nM.
Regarding `CC(F)(F)C(=O)N1CC2CNCC(C2)C1` [Example 10-90], the results for the Ki at human α4β2 nAChR subtype and at rat α4β2 nAChR subtype [2] were 9.2 nM and 14.6 nM, respectively. The inhibition at 5 µM on α7 nAChR subtype is < 50%.
In the same order, the values of `CC(C)(F)C(=O)N1CC2CNCC(C2)C1` [Example 10-91] are 139 nM, 342 nM and < 50%.
For `O=C([C@H]1C[C@H]1F)N1CC2CNCC(C2)C1` [Example 10-92], the Ki on human α4β2 nAChR subtype is 7.3 nM; at rat α4β2 nAChR subtype [2], 15.9 nM; on α7 nAChR subtype (α7 Ki) it was 360 nM.
Regarding `O=C(C1CC2CCC1C2)N1CC2CNCC(C2)C1` (stereo not shown) [Example 10-93], the Ki at human α4β2 nAChR subtype was found to be 35.3 nM; at rat α4β2 nAChR subtype [2], 49.7 nM. Moreover, on α7 nAChR subtype, the inhibition at 5 µM was < 50%.
For the compound `O=C(C1CC2C=CC1C2)N1CC2CNCC(C2)C1` (stereo not shown) [Example 10-94], the Ki on human α4β2 nAChR subtype was 12.6 nM; at rat α4β2 nAChR subtype [2] it was 22.7 nM. Also, the inhibition at 5 µM on α7 nAChR subtype was < 50%.
Consider `O=C([C@@H]1CC2C=CC1C2)N1CC2CNCC(C2)C1` (stereo partly shown) [Example 10-95], for which the values for the Ki on human α4β2 nAChR subtype and on rat α4β2 nAChR subtype [2] were 2.2 nM and 4.9 nM, respectively. Further, the inhibition at 5 µM on α7 nAChR subtype was < 50%.
Consider `O=C(C1CCC[C@H]1O)N1CC2CNCC(C2)C1` (stereo partly shown) [Example 10-96], for which the results for the inhibition constant (Ki) on human α4β2 nAChR subtype and at rat α4β2 nAChR subtype [2] were 731 nM and 776 nM, respectively. For the same compound, the inhibition at 5 µM on α7 nAChR subtype was < 50%.
Regarding `O=C(C1C2CCCCC21)N1CC2CNCC(C2)C1` (stereo not shown) [Example 10-97], at rat α4β2 nAChR subtype [1], the “Rat α4β2 high through-put screening (HTS) result” value is given as “ND; failed HTS (the compound failed to inhibit, at 5 μM concentration, the binding of 5 nM ^3H-nicotine by at least 50%)”. The compound further came in with an inhibition constant Ki at human α4β2 nAChR subtype of 64.1 nM. Also, the inhibition at 5 µM on α7 nAChR subtype was < 50%.
In the case of `O=C(C1CC=CCC1)N1CC2CNCC(C2)C1` (stereo not shown) [Example 10-98], the inhibition constant Ki stood at 134 nM at human α4β2 nAChR subtype; 198 nM at rat α4β2 nAChR subtype [2]; 794 nM at α7 nAChR subtype ([3H]MLA 5 nM, rat hippocampus membranes, read-out: α7 Ki).
For the compound `O=C(Cn1ccnc1)N1CC2CNCC(C2)C1` [Example 10-99], the Ki at human α4β2 nAChR subtype was found to be 821 nM; on rat α4β2 nAChR subtype [2] it was 1320 nM. Further, at α7 nAChR subtype, the inhibition at 5 µM was < 50%.
In the case of `O=C(C1C[C@H]2C=C[C@@H]1CC2)N1CC2CNCC(C2)C1` (stereo partly shown) [Example 10-100], the results for the Ki at human α4β2 nAChR subtype and on rat α4β2 nAChR subtype [2] were 72.4 nM and 256 nM, respectively. In addition, the inhibition at 5 µM on α7 nAChR subtype is < 50%.
In the same order, the values of `O=C(C1CC=CCC1c1cccnc1)N1CC2CNCC(C2)C1` (stereo not shown) [Example 10-101] are 69.6 nM, 602 nM and < 50%.
